These results are taken from ChEMBL document CHEMBL4513139, “CO-ADD screening of University of Strathclyde (UK) compounds”.

The subject of one assay is HEK293. Briefly: cells. Format: functional, Homo sapiens, ATCC CRL1573. Conditions: Homo sapiens, ATCC CRL1573, HEK293; ASSAY_TEST Inhibition of Cell Viability; detection method Resazurin; Fluorescence (ex560/em590); MEDIA DMEM with 10% FBS; plate type 384well; TC; CORNING #3712; time 18 hr; read-out: CC50.
For another assay, the system named is Staphylococcus aureus. The assay is described as follows: microbe, parasite or virus in culture. The following applies: ATCC 43300, 18 h, ASSAY_TEST Inhibition of Bacterial Growth, detection method Absorption (OD600), MEDIA CAMHB, plate type 384well, NBS, CORNING #3640.
In a further assay the test system is Escherichia coli. The assay is described as follows: microbe, parasite or virus in culture. Conditions: ATCC 25922, 18 h, ASSAY_TEST Inhibition of Bacterial Growth, detection method Absorption (OD600), MEDIA CAMHB, plate type 384well, NBS, CORNING #3640.
For a further assay, the system named is Klebsiella pneumoniae. Briefly: microbe, parasite or virus in culture. Conditions: ATCC 700603, 18 h, ASSAY_TEST Inhibition of Bacterial Growth, detection method Absorption (OD600), MEDIA CAMHB, plate type 384well, NBS, CORNING #3640.
The next assay has as its system Pseudomonas aeruginosa. The assay is described as follows: microbe, parasite or virus in culture. The following applies: ATCC 27853, 18 h, ASSAY_TEST Inhibition of Bacterial Growth, detection method Absorption (OD600), MEDIA CAMHB, plate type 384well, NBS, CORNING #3640.
The next assay deals with Acinetobacter baumannii. Briefly: microbe, parasite or virus in culture. The following applies: ATCC 19606, 18 h, ASSAY_TEST Inhibition of Bacterial Growth, detection method Absorption (OD600), MEDIA CAMHB, plate type 384well, NBS, CORNING #3640.
Another assay deals with Candida albicans. The assay is described as follows: microbe, parasite or virus in culture. The following applies: ATCC 90028, ASSAY_TEST Inhibition of Fungal Growth, detection method Absorption (OD530), plate type 384well, NBS, CORNING #3640.

Converted amounts (≈) assume the structure as drawn.

Description for Acinetobacter baumannii: Antibacterial activity against Acinetobacter baumannii ATCC 19606 (CO-ADD:GN_034); MIC in CAMBH media using NBS plates, by OD600
Description for Candida albicans: Antifungal activity against Candida albicans ATCC 90028 (CO-ADD:FG_001); MIC in YNB media using NBS plates, by OD630
Description for Cryptococcus neoformans: Antifungal activity against Cryptococcus neoformans H99 ATCC 208821 (CO-ADD:FG_002); MIC in YNB media using NBS plates, by Resazurin OD(600-570)
Description for Escherichia coli: Antibacterial activity against Escherichia coli ATCC 25922 (CO-ADD:GN_001); MIC in CAMBH media using NBS plates, by OD(600)
Description for Klebsiella pneumoniae: Antibacterial activity against Klebsiella pneumoniae MDR ATCC 70063 (CO-ADD:GN_003); MIC in CAMBH media using NBS plates, by OD(600)
Description for Pseudomonas aeruginosa: Antibacterial activity against Pseudomonas aeruginosa ATCC 27853 (CO-ADD:GN_042); MIC in CAMBH media using NBS plates, by OD(600)
Description for Staphylococcus aureus: Antibacterial activity against Staphylococcus aureus MRSA ATCC 43300 (CO-ADD:GP_020); MIC in CAMBH media, using NBS plates, by OD(600)

Consider `COc1ccc(/C=C/c2ccc(C(=O)Nc3cc(C(=O)Nc4cc(C(=O)NCCN5CCC(O)CC5)n(C)c4)n(C)c3)cn2)cc1.O=C(O)C(F)(F)F.O=C(O)C(F)(F)F`, for which the cytotoxic concentration (CC50) with HEK293 is over 32 µg/mL. In addition, the MIC in the assay on Cryptococcus neoformans, in the assay on Staphylococcus aureus, in the assay on Escherichia coli, with Klebsiella pneumoniae, in the assay with Pseudomonas aeruginosa and in the assay with Acinetobacter baumannii was over 32 µg/mL each time. The same molecule returned an MIC in the assay with Candida albicans of over 32 µg/mL.

For the molecule `COCCOC1CCN(C(=O)c2cc(NC(=O)c3cc(NC(=O)c4ccc(/C=C/c5ccc(OC)cc5)nc4)cn3C)cn2C)CC1.O=S(=O)(O)O`, the 50% cytotoxic concentration (CC50) in the assay on HEK293 turned out to be 15.5 µg/mL. In addition, the MIC against Cryptococcus neoformans, against Staphylococcus aureus, with Escherichia coli, in the assay on Klebsiella pneumoniae, in the assay on Pseudomonas aeruginosa and against Acinetobacter baumannii was over 32 µg/mL throughout. This molecule also displayed an MIC with Candida albicans of over 32 µg/mL.

Turning to `COC(=O)CCC(=O)Nc1cc(C(=O)Nc2cc(C(=O)Nc3nc(C(=O)NCCCN(C)C)c(CCC(C)C)s3)n(C)c2)n(C)c1`, the CC50 in the assay on HEK293 is over 32 µg/mL. Besides, the MIC in the assay with Cryptococcus neoformans, in the assay on Staphylococcus aureus, against Escherichia coli, against Klebsiella pneumoniae, in the assay with Pseudomonas aeruginosa and in the assay on Acinetobacter baumannii was over 32 µg/mL throughout. This molecule also yielded an MIC in the assay with Candida albicans of over 32 µg/mL.

For `COc1cccc(/C=C/c2ccc(C(=O)Nc3cc(C(=O)Nc4cc(C(=O)NCCN5CCCCC5)n(CCCc5ccccc5)c4)n(C)c3)cc2)c1.O=C(O)C(F)(F)F`, the CC50 in the assay with HEK293 is 16 µg/mL. The MIC against Cryptococcus neoformans, against Staphylococcus aureus, against Escherichia coli, against Klebsiella pneumoniae, against Pseudomonas aeruginosa and with Acinetobacter baumannii was over 32 µg/mL in each case. In the assay with Candida albicans, this molecule displayed an MIC of over 32 µg/mL.

`CC(C)n1cc(NC(=O)c2cc(NC(=O)c3ccc(/C=C/c4cnc5ccccc5c4)cc3)cn2C)cc1C(=O)NCCN1CCOCC1.O=C(O)C(F)(F)F.O=C(O)C(F)(F)F`: in the assay on HEK293, the CC50 turned out to be 2.81 µg/mL. For the same molecule, the MIC against Cryptococcus neoformans is 16 µg/mL; in the assay with Staphylococcus aureus, 1 µg/mL; against Escherichia coli, over 32 µg/mL; in the assay on Klebsiella pneumoniae, over 32 µg/mL; against Pseudomonas aeruginosa, over 32 µg/mL; in the assay with Acinetobacter baumannii it was over 32 µg/mL. Also, the MIC against Candida albicans stood at 32 µg/mL.

Take `CC(=N)Nc1cc(C(=O)Nc2cc(C(=O)Nc3cc(C(=O)NCCCN(C)C)n(C)c3)n(C)c2)n(C)c1.O=C(O)C(F)(F)F.O=C(O)C(F)(F)F`: the 50% cytotoxic concentration (CC50) in the assay with HEK293 was over 32 µg/mL. Further, the MIC in the assay with Cryptococcus neoformans, against Staphylococcus aureus, against Escherichia coli, in the assay on Klebsiella pneumoniae, against Pseudomonas aeruginosa and against Acinetobacter baumannii was over 32 µg/mL in each case. In the assay on Candida albicans, this molecule registered an MIC of over 32 µg/mL.

Consider `CC(C)CCn1cc(NC(=O)c2cc(NC(=O)c3cc(NC(=N)c4cnc5ccccc5c4)cn3C)cn2C)cc1C(=O)NCCCN(C)C.O=C(O)C(F)(F)F.O=C(O)C(F)(F)F`, for which the CC50 in the assay with HEK293 worked out at 11.6 µg/mL. Also, the MIC in the assay with Cryptococcus neoformans is 8 µg/mL; against Staphylococcus aureus, 32 µg/mL; against Escherichia coli, 32 µg/mL; against Klebsiella pneumoniae it was over 32 µg/mL; against Pseudomonas aeruginosa it was over 32 µg/mL; in the assay with Acinetobacter baumannii, over 32 µg/mL. For the same molecule, the MIC against Candida albicans is over 32 µg/mL.

With `CC(C)c1sc(NC(=O)c2cc(NC(=O)c3cc(NC(=O)c4cc5ccccc5cn4)cn3C)cn2C)nc1C(=O)NCCN1CCOCC1.O=C(O)C(F)(F)F`, in the assay on HEK293, the CC50 is over 32 µg/mL. Also, the MIC is 32 µg/mL in the assay with Cryptococcus neoformans; over 32 µg/mL with Staphylococcus aureus; over 32 µg/mL in the assay with Escherichia coli; over 32 µg/mL against Klebsiella pneumoniae; over 32 µg/mL with Pseudomonas aeruginosa; over 32 µg/mL with Acinetobacter baumannii. Further, in the assay with Candida albicans, the MIC is over 32 µg/mL.

With `COc1cccc(/C=C/c2ccc(C(=O)Nc3cc(C(=O)Nc4cc(C(=O)NCCN5CCOCC5)n(C(C)C)c4)n(C)c3)cc2)c1.O=C(O)C(F)(F)F`, the 50% cytotoxic concentration (CC50) in the assay on HEK293 worked out at 4.31 µg/mL. The MIC in the assay with Cryptococcus neoformans, in the assay on Staphylococcus aureus, with Escherichia coli, with Klebsiella pneumoniae, against Pseudomonas aeruginosa and against Acinetobacter baumannii was over 32 µg/mL throughout. The molecule also showed an MIC against Candida albicans of over 32 µg/mL.

Take `CN(C)CCCNC(=O)c1cc(NC(=O)c2cc(NC(=O)c3cc(NC(=N)c4cc5ccccc5cn4)cn3C)cn2C)cn1C.O=C(O)C(F)(F)F.O=C(O)C(F)(F)F`: in the assay on HEK293, the CC50 was over 32 µg/mL. For the same molecule, the MIC in the assay with Cryptococcus neoformans is 8 µg/mL; against Staphylococcus aureus it was over 32 µg/mL; against Escherichia coli it was over 32 µg/mL; in the assay with Klebsiella pneumoniae, over 32 µg/mL; against Pseudomonas aeruginosa, over 32 µg/mL; in the assay on Acinetobacter baumannii it was over 32 µg/mL. Moreover, the MIC against Candida albicans was determined as 32 µg/mL.

As for `CC(C)CCn1cc(NC(=O)c2cc(NC(=O)c3cc(NC(=N)N)cn3C)cn2C)cc1C(=O)NCCCN(C)C.O=C(O)C(F)(F)F.O=C(O)C(F)(F)F`, the cytotoxic concentration (CC50) in the assay on HEK293 was over 32 µg/mL. Also, the MIC in the assay on Cryptococcus neoformans is 32 µg/mL; with Staphylococcus aureus, over 32 µg/mL; in the assay on Escherichia coli it was over 32 µg/mL; in the assay on Klebsiella pneumoniae, over 32 µg/mL; against Pseudomonas aeruginosa it was over 32 µg/mL; in the assay with Acinetobacter baumannii it was over 32 µg/mL. The molecule also returned an MIC against Candida albicans of over 32 µg/mL.

Consider `CC(=O)Nc1cc(C(=O)Nc2cc(C(=O)NCCC(=N)N)n(C)c2)n(C)c1.O=C(O)C(F)(F)F`, for which, in the assay on HEK293, the 50% cytotoxic concentration (CC50) was over 32 µg/mL. Besides, the MIC against Cryptococcus neoformans, with Staphylococcus aureus, in the assay on Escherichia coli, against Klebsiella pneumoniae, with Pseudomonas aeruginosa and against Acinetobacter baumannii was over 32 µg/mL in each case. In the assay on Candida albicans, this molecule had an MIC of over 32 µg/mL.

As to `COc1cccc(C(=N)Nc2cc(C(=O)Nc3cc(C(=O)Nc4nc(C(=O)NCCCN(C)C)c(CCC(C)C)s4)n(C)c3)n(C)c2)c1.O=C(O)C(F)(F)F.O=C(O)C(F)(F)F`, the CC50 in the assay on HEK293 is over 32 µg/mL. Moreover, the MIC is 2 µg/mL in the assay on Cryptococcus neoformans; 2 µg/mL in the assay on Staphylococcus aureus; 32 µg/mL in the assay on Escherichia coli; over 32 µg/mL with Klebsiella pneumoniae; over 32 µg/mL in the assay on Pseudomonas aeruginosa; over 32 µg/mL against Acinetobacter baumannii. The molecule also showed an MIC against Candida albicans of over 32 µg/mL.

With `COc1ccc(/C=C/c2ccc(C(=O)Nc3cc(C(=O)Nc4cc(C(=O)NCCN5CCC(OC)CC5)n(C)c4)n(C)c3)cn2)cc1.O=C(O)C(F)(F)F.O=C(O)C(F)(F)F`, the CC50 in the assay with HEK293 turned out to be 2.7 µg/mL. Moreover, the MIC against Cryptococcus neoformans is over 32 µg/mL; in the assay with Staphylococcus aureus, 1 µg/mL; in the assay on Escherichia coli it was over 32 µg/mL; in the assay with Klebsiella pneumoniae, over 32 µg/mL; in the assay on Pseudomonas aeruginosa, over 32 µg/mL; with Acinetobacter baumannii, over 32 µg/mL. Besides, in the assay on Candida albicans, the MIC was over 32 µg/mL.

On to `CC(C)CCc1sc(NC(=O)c2cc(NC(=O)c3cc(NC(=O)c4sc(N)nc4C(F)(F)F)cn3C)cn2C)nc1C(=O)NCCCN(C)C.O=C(O)C(F)(F)F`, for which the CC50 in the assay with HEK293 was determined as 2.48 µg/mL. The MIC in the assay on Cryptococcus neoformans is over 32 µg/mL; in the assay with Staphylococcus aureus it was 8 µg/mL; in the assay with Escherichia coli, over 32 µg/mL; in the assay with Klebsiella pneumoniae, over 32 µg/mL; against Pseudomonas aeruginosa, over 32 µg/mL; in the assay on Acinetobacter baumannii it was over 32 µg/mL. Further, the MIC with Candida albicans was over 32 µg/mL.

`Cn1cc(NC(=O)c2cc(NC(=O)c3ccc(/C=C/c4ccc(F)cc4)cc3)cn2C)cc1C(=O)NCCN1CCOCC1.O=C(O)C(F)(F)F`: the cytotoxic concentration (CC50) in the assay on HEK293 was over 32 µg/mL. Moreover, the MIC with Cryptococcus neoformans, with Staphylococcus aureus, in the assay on Escherichia coli, against Klebsiella pneumoniae, against Pseudomonas aeruginosa and in the assay on Acinetobacter baumannii was over 32 µg/mL each time. Moreover, the MIC with Candida albicans is over 32 µg/mL.

Regarding `Cc1ncc(Cn2cc(CCOS(C)(=O)=O)nn2)c(N)n1`, the 50% cytotoxic concentration (CC50) with HEK293 was over 32 µg/mL. Besides, the MIC was 2 µg/mL (≈ 6.4 µM) with Cryptococcus neoformans; over 32 µg/mL in the assay on Staphylococcus aureus; over 32 µg/mL against Escherichia coli; over 32 µg/mL against Klebsiella pneumoniae; over 32 µg/mL in the assay on Pseudomonas aeruginosa; over 32 µg/mL in the assay with Acinetobacter baumannii. In the assay with Candida albicans, this molecule gave an MIC of 1 µg/mL (≈ 3.2 µM).

Take `CC(C)n1cc(NC(=O)c2cc(NC=O)cn2C)cc1C(=O)Nc1cc(C(=O)NCCCN(C)C)n(C)c1.O=C(O)C(F)(F)F`: the CC50 with HEK293 was over 32 µg/mL. Moreover, the MIC in the assay on Cryptococcus neoformans, in the assay with Staphylococcus aureus, with Escherichia coli, against Klebsiella pneumoniae, against Pseudomonas aeruginosa and against Acinetobacter baumannii was over 32 µg/mL throughout. Also, in the assay on Candida albicans, the MIC was over 32 µg/mL.

Regarding `Cn1cc(NC(=O)c2cc(NC(=O)C(C)(C)C)cn2C)cc1C(=O)NCCC(=N)N.O=C(O)C(F)(F)F`, the CC50 in the assay with HEK293 turned out to be 12.3 µg/mL. Further, the MIC against Cryptococcus neoformans, with Staphylococcus aureus, with Escherichia coli, against Klebsiella pneumoniae, with Pseudomonas aeruginosa and with Acinetobacter baumannii was over 32 µg/mL in each case. The molecule also showed an MIC against Candida albicans of over 32 µg/mL.

As to `Cn1cc(NC(=O)c2cc(NC(=O)c3ccc(/C=C/c4ccc5ccccc5c4)cc3)cn2C)cc1C(=O)NCCN1CCOCC1.O=C(O)C(F)(F)F`, the CC50 with HEK293 was over 32 µg/mL. For the same molecule, the MIC with Cryptococcus neoformans, against Staphylococcus aureus, against Escherichia coli, against Klebsiella pneumoniae, with Pseudomonas aeruginosa and in the assay on Acinetobacter baumannii was over 32 µg/mL in each case. In addition, the MIC in the assay on Candida albicans was determined as 16 µg/mL.
